Results reported in patent publication US6339062B1, “Retroinverso polypeptides that mimic or inhibit thrombospondin activity” (Inkine Pharmaceutical Company, Inc., priority 1998, dated 2002).
Marks after values point to notes of the source that are not given here. Where no end group is shown, it is not given here. [ ]: non-standard residue; d: D form. The star is where a group is joined. Acm = CC(=O)NC*

Legend:
[1] = test system: mouse B16-F10 melanoma cells; assay: Direct adhesion to dried peptide (Example 31); format: cell-based; conditions: 10 μg of each peptide; one hour; FIG. 20
Method: Peptide effect on direct adhesion was tested by drying 10 μg of each peptide on the bottom of a 96well microtiter plate. Plates were blocked with BSA. Mouse B16-F10 melanoma cells (50,000) were plated in each well and allowed to attach for one hour. Non-adherent cells were aspirated out, plates rinsed, and adherent cells were fixed, stained, and counted. The error bars represent the standard deviation.

[2] = test system: mouse B16-F10 melanoma cells; assay: Boyden chamber assay, TSP-1 mediated invasion of collagen (Examples 29, 30); format: cell-based; conditions: for dose-dependent effect on melanoma cell invasion: FIG. 19
Method: Cell invasion was investigated by the Boyden Chamber Invasion Assay using the modified Boyden chamber. T. Frandsen et al., Fibrinolysis, 6: 71-76 (1992). Polycarbonate filters, 12 μm pore size, e.g., Millicell, Millipore Corporation, Bedford, Ma, were coated with 100 μg Type IV collagen (1 mg/ml 60% EtOH) and dried overnight at 25° C. Blind-well Boyden chambers are filled with 600 μl of serum-free media containing 0.1% BSA in the lower compartment, and the coated filters will be mounted in the chamber. Approximately 50,000 cells (tested to be greater than 95% viable) suspended in 400 μl of the same media will be placed in the upper chamber of the apparatus and allowed to settle onto the collagen-coated membrane. Varying concentrations of TSP-1 (0-150 nM) will be placed in the lower compartment and any neutralizing antibodies as well as peptides will be placed in the upper chamber. After an incubation period of about 3 to 6 hours at 37° C., the cells on the upper surface of the filter will be removed with a cotton swab. The filters are then fixed in 3% glutaraldehyde solution and stained with 0.5% crystal violet solution. Invasive cells adhering to the under-surface of the filter are counted using a phase contrast microscope (400×).
Using this assay, mouse B16-F10 melanoma cells (50,000) were plated on the collagen-coated disk of the Boyden chamber apparatus. The top chamber contained melanoma cells in the presence of 500 μg/ml of the TSP-1 derived peptide and the bottom chamber contained 20 μg/ml TSP-1. After 6 hours, cells traversing the collagen were counted as cells attached to the underside of the collagen-coated disk. Five representative fields per chamber in duplicate were counted. The data shown in FIG. 18 represents the average per field and the error bars represent the standard deviation. The scrambled peptide, Val-Cys-Thr-Gly-Ser-Cys (SEQ ID NO: 7), the irrelevant peptide, Ala-Ser-Val-Thr-Ala-Arg (SEQ ID NO: 38), buffer, and the d-amino acid Cys-Ser-Val-Thr-Cys-Gly (SEQ ID NO: 40) had no effect on invasion.
The experiments were performed as described for Example 29. […] In contrast, d-Cys-Ser-Val-Thr-Cys-Gly (SEQ ID NO: 40) had no effect.

[3] = Stability toward oxidation; format: physicochemical; conditions: compared with unblocked peptide
[4] = test system: mouse B16-F10 melanoma cells; assay: Melanoma lung metastasis, daily i.p. from day 3 after implantation (Example 23); format: in vivo, mice; conditions: daily i.p. for 10 days from day 3, FIG. 14
Method: Mice were intravenously injected with mouse B16-F10 melanoma cells (75,000). After 3 days, each mouse was treated daily by intraperitoneal injection with either PBS, 0.01 mg, or 1 mg of peptide for 10 days. Treatment groups consisted of 5 mice. After 10 days animals were sacrificed and lung tumors counted. Error bars represent the standard error of the mean. p<0.001 between control- and peptide-treated groups.

[5] = test system: mouse B16-F10 melanoma cells; assay: Melanoma lung metastasis, one bolus i.v. or i.p. (Example 22); format: in vivo; conditions: for blocking activity in metastasis and the other assays, peptide versus blocked analogue: mouse, in vivo
Method: One bolus injection of Cys-(Acm)-Ser-Val-Thr-Cys-(Acm)-Gly (SEQ ID NO: 6) peptide (1 mg/mouse intravenously or 5 mg/mouse intraperitoneally ) was administered followed by intravenous injection of mouse B16-F10 melanoma cells (100,000). Each treatment group consisted of 5 animals. After 10 days animals were sacrificed and lung tumors counted. […] Error bars represent the standard error of the mean. P values between control and peptide-treated groups <0.001.

washed human platelets = assay: Collagen-induced platelet aggregation (Examples 9, 10); format: cell-based; conditions: 5 μg/ml collagen; various concentrations; FIG. 10
Method: Washed human platelets were suspended in HEPES-buffered saline, containing 5 mM glucose and 350 μg/ml BSA. 0.5 ml aliquots of platelets were aggregated by stirring with 5 μg/ml collagen in the presence of 500 μg/ml of various peptides. Aggregation was measured at 37° C. as decrease in optical absorbance vs. time in a Chrono-log aggregometer and is shown in FIG. 9. 100% aggregation was defined as the maximal decrease in absorbance measured in the absence of peptide. % of control was calculated as the decrease in absorbance measured in the presence of peptide divided by the decrease in absorbance measured in the absence of peptide times 100. Peptides are designated under each bar graph by their amino acid sequence represented using the one letter amino acid code.
Washed human platelets were suspended in HEPES-buffered saline, containing S mM glucose and 350 μg/ml BSA. […] Aggregation was measured at 37° C. as decrease in optical absorbance vs. time in a chrono-log aggregometer and is shown in FIG. 10. 100%; aggregation was defined as the maximal decrease in absorbance measured in the absence of peptide. % of control was calculated as the decrease in absorbance measured in the presence of peptide divided by the decrease in absorbance measured in the absence of peptide times 100.

[6] = test system: mouse B16-F10 melanoma cells; assay: Melanoma tumor cell metastasis, peptide i.v. (Example 21); format: in vivo, mice; conditions: 1 mg peptide i.v. shortly before or after tumor implantation; two weeks; FIG. 12
Description: Mice were sacrificed two weeks later and lung tumors counted. Treatment groups consisted of five animals. The photograph of FIG. 12 depicts three lungs from each treatment group. The black spots are melanoma tumors. All metastasis experiments were repeated 2-3 times showing qualitatively similar results depicted in the bar graph of FIG. 12.

rat aorta = assay: Angiogenesis in serum-free collagen gel culture of rat aorta (Example 28); format: cell-based; conditions: compared to untreated control or scrambled peptide control; FIG. 17
Description: Error bars=SEM. Photo-micrograph (4× magnification) of a representative aortic ring culture treated either with Cys-Ser-Val-Thr-Cys-Gly (SEQ ID NO: 1) or Val-Cys-Thr-Gly-Ser-Cys (SEQ ID NO: 7) (FIG. 17B). The Cys-Ser-Val-Thr-Cys-Gly (SEQ ID NO: 1)-treated culture has fewer capillary outgrowths than the Val-Cys-Thr-Gly-Ser-Cys (SEQ ID NO: 7) scrambled peptide control.

[7] = test system: MMP-9 production in BAE cells; assay: TSP-1-stimulated endothelial MMP-9 production (Example 27); format: cell-based
Method: BAE cells were treated with TSP-1 as described in Example 27. MMP-9 levels were quantitated from densitometry of the zymograms prepared from the BAE cell conditioned media. The control was 15 μg/ml TSP-1. All other treatments were performed in the presence of 15 μg/ml TSP-1.

[8] = test system: human MDA-MB-231 breast carcinoma cells; assay: Athymic model of human tumor progression, peptide experiments (Example 24); format: in vivo, athymic mice
Method: To further evaluate the anti-metastatic properties of the Cys-Ser-Val-Thr-Cys-Gly (SEQ ID NO: 1) peptide, we measured the effect of peptide and antibody against the Cys-Ser-Val-Thr-Cys-Gly (SEQ ID NO: 1) receptor in an athymic model of human tumor progression. In this model, human MDA-MB-231 breast carcinoma cells were injected intraperitoneally in athymic mice. Animals were then treated with either peptide or receptor IgG for three weeks after which the extent of lung and liver metastasis is determined.
For the peptide experiments, eighteen mice were inoculated with MDA-MB-231 human breast cancer cells. After 72 hours, mice were randomized to treatment with every-other-day intraperitoneal injections of saline, scrambled peptide, or a Cys-Ser-Val-Thr-Cys-Gly (SEQ ID NO: 1) peptide for 20 days. One mouse treated with the Cys-Ser-Val-Thr-Cys-Gly (SEQ ID NO: 1) peptide expired after traumatic injection. Mice were sacrificed at 21 days. The peritoneal cavity was examined grossly for primary tumor implantation. The liver and lungs were examined histologically for micrometastases. Statistical analysis was performed by Chi-square analysis.

[9] = test system: mouse B16-F10 melanoma cells; assay: Tumor cell metastasis, one i.p. injection of peptide (Example 32); format: in vivo; conditions: 1 mg peptide i.p. once; 14 days; FIG. 21
Method: Mouse B16-F10 melanoma cells (75,000 ) were injected intravenously and was immediately followed by one intraperitoneal injection of 1 mg of peptide. Six animals were treated with each peptide. Animals were sacrificed 14 days later and lung colonies counted. The data shown in FIG. 21 represents the mean of lung colonies and the error bars represent the standard error of the mean. The peptides, d-Gly-Cys-(Acm)-Thr-Val-Ser-Cys-(Acm) (retroinverso) (SEQ ID NO: 35), and l-Cys-(Acm)-Ser-Val-Thr-Cys-(Acm)-Gly (SEQ ID NO: 6) inhibited metastasis by more than 80%, whereas d-Cys-Ser-Val-Thr-Cys-Gly (SEQ ID NO: 40) had no effect.

[10] = i.p. every other day for 20 days, sacrificed at 21 days

Substance	adhesion of cells to dried peptide [1]	dose-dependent effect on melanoma cell invasion [2]	stability toward oxidation [3]	reduction in lung colonies with respect to buffer-treated ([4]; 0.01 mg/ml-treated animals) [%]	suppression of melanoma colonies ([4]; 1 mg/ml treated animals)	blocking activity in metastasis and the other assays, peptide versus blocked analogue [5]	fewer lung metastasis as compared to saline or scrambled peptide controls ([5]; one bolus, 1 mg/mouse i.v. or 5 mg/mouse i.p., 10 days) [%]	large lung metastases ([5]; one bolus, 10 days)	collagen-induced platelet aggregation, dose response (washed human platelets)	melanoma cell metastasis (lung tumors) [6]	angiogenesis (capillary outgrowths) (rat aorta)	% inhibition (MMP-9) ([7]; 0.20 mM, with 15 μg/ml TSP-1) [%]	Relative MMP-9 Levels ([7]; 0.20 mM, with 15 μg/ml TSP-1)	inhibited MMP-9 production ([7]; at high doses) [%]	in vivo breast cancer progression; metastases in the two organs examined ([8]; compared with saline or scrambled peptide groups)	intraperitoneal tumors ([8]; gross examination at 21 days)	Liver: no. of animals with metastases/total no. of animals [8, 10]	Lungs: no. of animals with metastases/total no. of animals [8, 10]	inhibition of TSP-1 mediated invasion ([2]; 500 μg/ml peptide top chamber, 20 μg/ml TSP-1 bottom chamber, 6 hours, FIG. 18)	inhibition of metastasis (lung colonies) [9]
C(Acm)SVTC(Acm)G	half as well as fibronectin and TSP-1	same dose-dependent inhibition	more stable toward oxidation	27	more than 80%	identical blocking activity	80	few large lung metastases												
CSVTCG (cysteine pairing not given here)	half as well as fibronectin and TSP-1					identical blocking activity			inhibit collagen-induced platelet aggregation	significantly blocked	inhibited angiogenesis	86	0.14	86	significantly decreased metastases	fewer and smaller intraperitoneal tumors	1/5*	0/5		
[dC]SVTCG (cysteine pairing not given here)	did not promote adhesion	no effect																	no effect	no effect
